Measurements: patent US20250269039A1, “THERAPEUTIC-OLIGONUCLEOTIDES ACTIVATED BY NUCLEASES” (priority 2020, published 2025)
Where two headings read alike, the source gives them in different places.

Key:
[1] = tested on: S. epidermidis ATCC 35984; test: Broth microdilution MIC and growth inhibition (control bacteria); type: cell-based, Staphylococcus epidermidis; conditions: for MIC: 18 h, TOUCAN as NA equivalent
Description: (§1) Bacteria strains. S. aureus NCTC 12493 (MRSA), S. aureus ATCC 29213 (MSSA), S. aureus ATCC 43300 (MRSA), S. aureus ATCC 1707 (MRSA), S. aureus ATCC 1717 (MRSA), S. aureus ATCC 1747 (MRSA), S. aureus ATCC 1761 (MRSA), S. aureus ATCC 1766 (MRSA), S. aureus ATCC 1768 (MRSA), S. epidermidis ATCC 35984, E. coli ATCC 25922, K. pneumoniae ATCC 13883, P. mirabilis ATCC 25933, S. enterica ATCC 14028 and P. aeruginosa ATCC 10145 strains were used in this study. Bacteria were initially inoculated onto tryptone soy agar with 5% defibrinated sheep blood (Thermo Fisher Scientific, Inc., Waltham, MA, USA) and incubated at 37° C. for 24 hours. Then, single colonies of each strain were transferred to tryptone soy broth (Thermo Fisher Scientific) for the nuclease activity assay or antimicrobial susceptibility testing, respectively.
(§2) Antimicrobial susceptibility testing. Minimal inhibitory concentrations (MIC) of all nucleoside analogues and TOUCANs against each bacteria strain were determined using broth microdilution method. A single colony obtained from overnight culture on tryptone soy agar with 5% defibrinated sheep blood was inoculated in cation-adjusted Mueller Hinton Broth and adjusted to 10^6 CFU/mL. TOUCANs were prepared in PBS+/+ (treatment) and serial dilutions were made in 96-well polystyrene round bottom microwell plates with 50 μL final volume for each concentration. PBS+/+ was used as untreated control. Next, 50 μL bacteria solutions were added to each well to a final bacteria concentration of 5×10^5 CFU/mL. Plates were incubated at 37° C. in Cytation 1 Cell Imaging Multimode Reader. Growth curves were obtained by measuring optical densities at 600 nm every 10 minutes for 18 hours using Cytation 1 Cell Imaging Multimode Reader. In addition, visual inspection of the plates was carried out after 18 hours and photographs were taken. MICs were defined as the lowest drug concentration in the microwell at which bacterial growth was not visible at the end of the incubation period. Besides MIC determination, specificity of TOUCAN 7mGe was also shown with subcultures on chromogenic media. For this purpose, 5 μL of different concentrations of each strain were inoculated onto CHROM agar Orientation Media (Becton Dickinson) and the bacterial growth of each bacteria strain tested was observed by naked eye after incubation at 37° C. for 24 hours. Finally, photographs of the chromogenic media were taken.

[2] = tested on: P. mirabilis ATCC 25933; test: as above; type: cell-based, Proteus mirabilis; conditions: for MIC: TOUCAN as NA equivalent
Description: as §1, §2

[3] = Complete blood counts of infected/treated mice; conditions: for percentage of neutrophils in blood: infected treated mice, after 24 hours, FIG. 7i; for BAS / BAS % / EO / EO % / HCT / HGB / LYM / LYM % / MCH / MCHC / MCV / MON / MON % / NE / NE % / PLT / RBC / RET / RET % / WBC: infected/treated mice, blood after 24 hours, AVG, n = 4; for change of red blood cells (RBCs), hematocrit and hemoglobin (acute blood toxicity): treated mice versus uninfected and placebo groups, FIG. 11

Row | Compound | percentage of neutrophils in blood [3] [%] | BAS [3] | BAS % [3] [%] | EO [3] | EO % [3] [%] | HCT [3] [%] | HGB [3] [g/dL] | LYM [3] | LYM % [3] [%] | MCH [3] [pg] | MCHC [3] [g/dL] | MCV [3] [fL] | MON [3] | MON % [3] [%] | NE [3] | NE % [3] [%] | PLT [3] [K/μL] | RBC [3] [L⁻¹] | RET [3] [K/μL] | RET % [3] [%] | further results
1 | mU-mU-mU-mU-T-T-Fx [TOUCAN 7mFx] | 13.8 | 0.0 10^9/L | 0.3 | 0.0 10^9/L | 1.3 | 44.5 | 14.0 | 1.6 10^9/L | 68.6 | 15.0 | 31.4 | 47.9 | 0.4 10^9/L | 15.7 | 0.3 10^9/L | 14.1 | 630.0 | 9.3e+12 | 257.7 | 2.8 | MIC ([1]; S. epidermidis ATCC 35984): >40 µg/mL; TOUCAN % Growth inhibition ([1]; S. epidermidis ATCC 35984, mean ± SD, n = 3): 7.4 ± 4.0%; growth inhibition, dose response ([1]; S. epidermidis, all concentrations tested, FIG. 5): no growth inhibition; MIC ([2]; 18 h): >40 µg/mL; TOUCAN % Growth inhibition ([2]; mean ± SD, n = 3): 45.5 ± 0.4%; WBC [3]: 2.4 10^9/L; change of red blood cells (RBCs), hematocrit and hemoglobin (acute blood toxicity) [3]: no difference
2 | O=c1[nH]c(=O)n([C@H]2C[C@H](O)[C@@H](CO)O2)cc1F [Floxuridine, reference compound] | 30.3 | 0.0 10^9/L | 0.5 | 0.0 10^9/L | 1.0 | 40.8 | 12.8 | 1.1 10^9/L | 48.9 | 14.8 | 31.5 | 47.4 | 0.3 10^9/L | 13.5 | 0.7 10^9/L | 36.1 | 599.3 | 8.6e+12 | 384.9 | 4.5 | MIC ([1]; Staphylococcus epidermidis, ATCC35984, S. epidermidis ATCC 35984, read-out: MIC): 0.04 µg/mL; MIC ([2]; Proteus mirabilis, ATCC25933, 18 h, read-out: MIC): 5 µg/mL; WBC [3]: 2.2 10^9/L; change of red blood cells (RBCs), hematocrit and hemoglobin (acute blood toxicity) [3]: reduction
